One may read the solubility as the dissolved amount per volume that the medium holds. A high value points to a readily soluble substance. As usually defined, the logD is the decadic logarithm of the distribution of all forms, ionised or not, between an organic phase and buffer at a given pH. A word on the pIC50: it is the IC50 on a negative log10 scale, so that one unit is a factor of ten. A high value points to a low IC50. For orientation: GI50 means the concentration that inhibits growth by half. Usually TGI stands for the concentration giving total growth inhibition. The low end stands for greater sensitivity of the cells, the high end for lower sensitivity of the cells.

pIC50: −log10 of the molar value. Values after ≈ are worked out from the molar mass of the structure shown.

Series [1] is described as follows: Aqueous solubility of the compound in phosphate buffer at pH 5.5 after 24 hrs by HPLC analysis. Type of series: physicochemical.
A short description of the next series: physchem. The conditions noted are these: octanol/phosphate buffered saline.
In series [2] the test system is Plasmodium falciparum. The experiment in a line: Antimalarial activity against asexual erythrocyte stages of chloroquine-sensitive Plasmodium falciparum D10. Type of series: functional, organism-based.
Series [3] deals with Plasmodium falciparum. The series can be described thus: Antimalarial activity against asexual erythrocyte stages of chloroquine-resistant Plasmodium falciparum Dd2. The class given is functional, organism-based.
The subject of series [4] is Plasmodium falciparum. The experiment in a line: Resistant index, ratio of IC50 for chloroquine-resistant Plasmodium falciparum Dd2 to IC50 for chloroquine-sensitive Plasmodium falciparum D10. The class given is functional.
The next series deals with CHO. The experiment in a line: Cytotoxicity against CHO cells by MTT assay. Type of series: cell-based. The conditions noted are these: Cricetulus griseus.
The nature of series [5]: Selectivity index, ratio of IC50 for CHO cells to IC50 for chloroquine-sensitive Plasmodium falciparum D10. Type of series: toxicity, cell-based. To be noted: hamster, read-out: Ratio IC50.
Another series concerns TK-10. The series can be described thus: Cytotoxicity against human TK10 cells after 48 hrs by sulforhodamine B assay. The class given is functional. The conditions noted are these: for GI50 / TGI / CC50: Homo sapiens, TK-10, 48 h; for CC50: read-out: LC50 (the source's name). In general terms: The SRB assay estimates cell density from bound dye.
The next series concerns UACC-62. The series can be described thus: Cytotoxicity against human UACC62 cells after 48 hrs by sulforhodamine B assay. Type of series: functional. The conditions noted are these: for GI50 / TGI / CC50: Homo sapiens, UACC-62, 48 h; for CC50: read-out: LC50 (the source's name).
Another series relates to MCF7. The series can be described thus: Cytotoxicity against human MCF7 cells after 48 hrs by sulforhodamine B assay. Type of series: functional. The conditions noted are these: for GI50 / TGI / CC50: Homo sapiens, MCF7, 48 h; for CC50: read-out: LC50 (the source's name).

Description for physchem: Octanol-phosphate buffered saline distribution coefficient, log D of the compound at 2 mg after 48 hrs by HPLC analysis

For `Clc1ccc2c(NCCNCCNc3ccnc4cc(Cl)ccc34)ccnc2c1`, the concentration in solution in [1] (solubility at 24 h) was 32 mM (≈ 13.6 mg/mL). This compound also showed a log distribution coefficient (logD) at 48 h in “physchem” of 0.3.

`Cc1cccc2nccc(NCCNCCNc3ccnc4cccc(C)c34)c12` gave a solubility at 24 h in series [1] of 29.5 mM (≈ 11.4 mg/mL). For the same compound, the pIC50 in the series on Plasmodium falciparum [2] is 6.13; in the series with Plasmodium falciparum [3], 6.29. Further, the “Ratio IC50” value in the series on Plasmodium falciparum [4] is listed as 0.7. Also, the logD at 48 h in “physchem” came to 0.05.

`Clc1ccc2c(NCCNCCNCCNc3ccnc4cc(Cl)ccc34)ccnc2c1` had a solubility at 24 h in series [1] of 38.7 mM (≈ 18.2 mg/mL). Also, the pIC50 with Plasmodium falciparum [2] was 7.06; in the series with Plasmodium falciparum [3], 7.45; in the series with CHO, 5.10. In the series on Plasmodium falciparum [4], the “Ratio IC50” value was determined as 0.4. Also, the selectivity ratio in series [5] is 93. The LC100 in the series on TK-10, in the series on UACC-62 and in the series on MCF7 was above 100 µM throughout. The GI50 in the series with TK-10 came to 5890 nM; in the series with UACC-62, 2870 nM; in the series with MCF7 it was 760 nM. Further, the TGI in the series with TK-10 stood at 5360 nM; in the series on UACC-62, 5300 nM; in the series with MCF7, 3530 nM. Further, the CC50 with TK-10 is 7710 nM; with UACC-62, 7740 nM; with MCF7, 7370 nM. The compound further yielded a logD at 48 h in “physchem” of 0.28.

`c1ccc2c(c1)nc(NCCCNCCCNc1nc3ccccc3n3cccc13)c1cccn12` displayed a solubility at 24 h in series [1] of 24.1 mM (≈ 11.2 mg/mL). The pIC50 in the series on Plasmodium falciparum [2] was 7.12; with Plasmodium falciparum [3], 6.45; in the series with CHO it was 5.42. Also, in the series on Plasmodium falciparum [4], the “Ratio IC50” value was 4.7. Besides, the selectivity ratio in [5] was found to be 51. In “physchem”, the logD at 48 h stood at 0.32.

With `c1ccc2c(c1)nc(NCCNCCNc1nc3ccccc3n3cccc13)c1cccn12`, the concentration in solution in series [1] (solubility at 24 h) was 27.5 mM (≈ 12 mg/mL). Besides, the pIC50 with Plasmodium falciparum [2] was 6.26; with Plasmodium falciparum [3], 5.72. Moreover, the “Ratio IC50” value in the series with Plasmodium falciparum [4] is given as 3.4. This compound also came in with a logD at 48 h in the series “physchem” of 0.39.

The compound `Clc1ccc2c(NCCCNCCNc3ccnc4cc(Cl)ccc34)ccnc2c1` gave a solubility at 24 h in series [1] of 23.5 mM (≈ 10.4 mg/mL). Further, the pIC50 is 7.18 with Plasmodium falciparum [2], 7.25 in the series with Plasmodium falciparum [3] and 5.51 in the series with CHO. For the same compound, the “Ratio IC50” value in the series with Plasmodium falciparum [4] was 0.9. In addition, the selectivity ratio in [5] was 47. Besides, the LC100 with TK-10, in the series with UACC-62 and in the series on MCF7 was above 100 µM each time. Moreover, the GI50 is 1230 nM with TK-10, 2070 nM in the series with UACC-62 and 600 nM with MCF7. For the same compound, the TGI was 4250 nM with TK-10, 4890 nM with UACC-62 and 2790 nM with MCF7. Moreover, the results for the CC50 with TK-10, with UACC-62 and with MCF7 were 7270 nM, 7720 nM and 7210 nM, respectively. In addition, the logD at 48 h in “physchem” was 0.3.

Consider `Clc1ccc2c(NCCCNCCNCCCNc3ccnc4cc(Cl)ccc34)ccnc2c1`, for which the solubility at 24 h in [1] was 18.9 mM (≈ 9.42 mg/mL). In addition, the values for the pIC50 with Plasmodium falciparum [2], with Plasmodium falciparum [3] and with CHO were 6.89, 7.31 and 4.89, respectively. Moreover, the “Ratio IC50” value in the series with Plasmodium falciparum [4] was determined as 0.4. Also, the selectivity ratio in series [5] was found to be 102. The LC100 in the series with TK-10, in the series on UACC-62 and in the series on MCF7 was above 100 µM in each case. Besides, the figures for the GI50 in the series on TK-10, in the series on UACC-62 and with MCF7 were 2100 nM, 1060 nM and 380 nM, respectively. The TGI in the series with TK-10 worked out at 4740 nM; with UACC-62 it was 4090 nM; with MCF7 it was 1650 nM. Besides, the results for the CC50 in the series on TK-10, with UACC-62 and with MCF7 were 7380 nM, 7110 nM and 6430 nM, respectively. For the same compound, in the series “physchem”, the logD at 48 h turned out to be 0.3.

`Cc1cccc2nccc(NCCCN(C)CCCNc3ccnc4cccc(C)c34)c12` showed a solubility at 24 h in series [1] of 31.2 mM (≈ 13.3 mg/mL). For the same compound, the pIC50 with Plasmodium falciparum [2] is 6.73; in the series with Plasmodium falciparum [3], 5.72. Moreover, the “Ratio IC50” value in the series on Plasmodium falciparum [4] was found to be 10.4. The compound also displayed a logD at 48 h in “physchem” of 0.16.

`Cc1cccc2nccc(NCCNCCNCCNc3ccnc4cccc(C)c34)c12` yielded a solubility at 24 h in series [1] of 38.9 mM (≈ 16.7 mg/mL). For the same compound, the values for the pIC50 in the series on Plasmodium falciparum [2] and with Plasmodium falciparum [3] were 5.85 and 5.96, respectively. The “Ratio IC50” value in the series on Plasmodium falciparum [4] is given as 0.8. In the series “physchem”, this compound had a logD at 48 h of 0.4.

Take `CN(CCCNc1nc2ccccc2n2cccc12)CCCNc1nc2ccccc2n2cccc12`: in [1], the concentration in solution (solubility at 24 h) was 30.2 mM (≈ 14.4 mg/mL). Also, the pIC50 with Plasmodium falciparum [2] was 6.95; with Plasmodium falciparum [3], 6.14; in the series on CHO, 5.37. In addition, in the series on Plasmodium falciparum [4], the “Ratio IC50” value worked out at 6.5. The selectivity ratio in series [5] amounted to 39. Moreover, the logD at 48 h in the series “physchem” was 0.36.

In the case of `CN(CCCNc1ccnc2cc(Cl)ccc12)CCCNc1ccnc2cc(Cl)ccc12`, the solubility at 24 h in [1] is 32.9 mM (≈ 15.4 mg/mL). The results for the negative logarithm of the IC50 (pIC50) in the series with Plasmodium falciparum [2], in the series on Plasmodium falciparum [3] and with CHO were 7.43, 7.15 and 5.11, respectively. The “Ratio IC50” value in the series with Plasmodium falciparum [4] is 1.9. The selectivity ratio in series [5] was 211. In addition, the LC100 in the series on TK-10 was 45.12 µM; with UACC-62, above 100 µM; with MCF7 it was above 100 µM. The GI50 in the series on TK-10 is 540 nM; in the series with UACC-62, 360 nM; in the series with MCF7, 390 nM. Further, the total growth inhibition concentration (TGI) was 1000 nM in the series on TK-10, 640 nM in the series on UACC-62 and 690 nM in the series on MCF7. In addition, the results for the CC50 in the series with TK-10, in the series with UACC-62 and in the series with MCF7 were 5610 nM, 920 nM and 1200 nM, respectively. Further, in “physchem”, the logD at 48 h was 0.29.

With `Cc1cccc2nccc(NCCCNCCNc3ccnc4cccc(C)c34)c12`, the solubility at 24 h in series [1] was 28.2 mM (≈ 11.3 mg/mL). The pIC50 in the series on Plasmodium falciparum [2] was 6.67; in the series with Plasmodium falciparum [3] it was 6.98. Also, the “Ratio IC50” value with Plasmodium falciparum [4] is 0.5. For the same compound, in “physchem”, the logD at 48 h worked out at 0.32.

`c1ccc2c(c1)nc(NCCNCCNCCNc1nc3ccccc3n3cccc13)c1cccn12` registered a solubility at 24 h in [1] of 34 mM (≈ 16.3 mg/mL). Besides, the pIC50 with Plasmodium falciparum [2] was 5.74; in the series with Plasmodium falciparum [3], 5.38; with CHO, 5.09. Further, in the series on Plasmodium falciparum [4], the “Ratio IC50” value came to 2.3. In addition, the selectivity ratio in [5] was 4.5. This compound also gave a logD at 48 h in “physchem” of -0.02.

For the compound `Cc1cccc2nccc(NCCCNCCNCCCNc3ccnc4cccc(C)c34)c12`, the concentration in solution in series [1] (solubility at 24 h) was 36.5 mM (≈ 16.7 mg/mL). Further, the pIC50 was 6.04 with Plasmodium falciparum [2], 6.22 in the series on Plasmodium falciparum [3] and 3.76 in the series with CHO. Also, the “Ratio IC50” value in the series on Plasmodium falciparum [4] is listed as 0.7. Further, the selectivity ratio in [5] is 187. Also, the logD at 48 h in the series “physchem” was 0.34.

As to `Cc1cccc2nccc(NCCCNCCCNc3ccnc4cccc(C)c34)c12`, the concentration in solution in series [1] (solubility at 24 h) was 27.9 mM (≈ 11.5 mg/mL). Besides, the pIC50 with Plasmodium falciparum [2] is 6.89; with Plasmodium falciparum [3], 7.10; in the series with CHO, 3.88. In addition, the “Ratio IC50” value in the series on Plasmodium falciparum [4] was found to be 0.6. The selectivity ratio in series [5] came to 1024. This compound also displayed a logD at 48 h in the series “physchem” of 0.14.

`Clc1ccc2c(NCCCNCCCNc3ccnc4cc(Cl)ccc34)ccnc2c1`: the solubility at 24 h in series [1] turned out to be 28.9 mM (≈ 13.1 mg/mL). Moreover, the logD at 48 h in “physchem” came out at 0.28.

In series [1], `c1ccc2c(c1)nc(NCCCNCCNc1nc3ccccc3n3cccc13)c1cccn12` displayed a solubility at 24 h of 28.6 mM (≈ 12.8 mg/mL). The pIC50 in the series with Plasmodium falciparum [2] was 6.70; in the series with Plasmodium falciparum [3], 5.86; in the series on CHO it was 5.55. In the series with Plasmodium falciparum [4], the “Ratio IC50” value worked out at 6.9. The selectivity ratio in series [5] came to 14. Besides, the logD at 48 h in the series “physchem” came to 0.34.

In the case of `CC[C@H]1CN2CCc3cc(OC)c(OC)cc3[C@@H]2C[C@@H]1C[C@H]1NCCc2cc(OC)c(OC)cc21` [EMETINE], in the series with CHO, the pIC50 is 6.52.

Source of the values: ChEMBL document CHEMBL2062520, “Synthesis and in vitro antimalarial activity of a series of bisquinoline and bispyrrolo[1,2a]quinoxaline compounds” (Eur J Med Chem, 2012).
